What is called IC50 is the concentration that gives 50% inhibition. Read a low IC50 as inhibition by little substance.

In assay [1] the target is T1, Carnitine O-palmitoyltransferase 1, muscle isoform (Homo sapiens, UniProt Q92523).
T1 sequence (Q92523 whole entry): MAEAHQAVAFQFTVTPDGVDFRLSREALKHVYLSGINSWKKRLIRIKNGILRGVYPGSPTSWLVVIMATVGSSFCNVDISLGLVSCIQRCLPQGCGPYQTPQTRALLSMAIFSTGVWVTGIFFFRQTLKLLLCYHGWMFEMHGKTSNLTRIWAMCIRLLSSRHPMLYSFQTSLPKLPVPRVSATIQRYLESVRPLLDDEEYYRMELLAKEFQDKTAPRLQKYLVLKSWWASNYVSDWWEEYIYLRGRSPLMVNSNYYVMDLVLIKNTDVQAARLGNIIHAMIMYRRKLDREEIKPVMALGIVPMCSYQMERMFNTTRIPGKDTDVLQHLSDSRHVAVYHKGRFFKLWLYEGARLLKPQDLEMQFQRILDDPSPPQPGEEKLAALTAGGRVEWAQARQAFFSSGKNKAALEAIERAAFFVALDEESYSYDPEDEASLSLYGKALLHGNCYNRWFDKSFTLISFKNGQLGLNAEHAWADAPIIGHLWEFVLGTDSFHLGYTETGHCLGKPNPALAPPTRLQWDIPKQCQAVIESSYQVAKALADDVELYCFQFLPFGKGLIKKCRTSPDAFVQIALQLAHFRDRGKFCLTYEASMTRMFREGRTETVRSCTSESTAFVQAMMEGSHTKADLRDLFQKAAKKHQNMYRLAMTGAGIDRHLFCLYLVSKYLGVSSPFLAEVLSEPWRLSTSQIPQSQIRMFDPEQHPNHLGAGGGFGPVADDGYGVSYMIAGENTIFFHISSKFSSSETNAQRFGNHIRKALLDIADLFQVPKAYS
Description: SUPPLEMENTARY: Inhibition of Carnitine palmitoyltransferase 1, muscle isoform. Further details: species or system Muscle tissue.

For assay [2], the target named is T2, Carnitine O-palmitoyltransferase 2, mitochondrial (Rattus norvegicus, UniProt P18886).
T2 sequence (P18886 whole entry): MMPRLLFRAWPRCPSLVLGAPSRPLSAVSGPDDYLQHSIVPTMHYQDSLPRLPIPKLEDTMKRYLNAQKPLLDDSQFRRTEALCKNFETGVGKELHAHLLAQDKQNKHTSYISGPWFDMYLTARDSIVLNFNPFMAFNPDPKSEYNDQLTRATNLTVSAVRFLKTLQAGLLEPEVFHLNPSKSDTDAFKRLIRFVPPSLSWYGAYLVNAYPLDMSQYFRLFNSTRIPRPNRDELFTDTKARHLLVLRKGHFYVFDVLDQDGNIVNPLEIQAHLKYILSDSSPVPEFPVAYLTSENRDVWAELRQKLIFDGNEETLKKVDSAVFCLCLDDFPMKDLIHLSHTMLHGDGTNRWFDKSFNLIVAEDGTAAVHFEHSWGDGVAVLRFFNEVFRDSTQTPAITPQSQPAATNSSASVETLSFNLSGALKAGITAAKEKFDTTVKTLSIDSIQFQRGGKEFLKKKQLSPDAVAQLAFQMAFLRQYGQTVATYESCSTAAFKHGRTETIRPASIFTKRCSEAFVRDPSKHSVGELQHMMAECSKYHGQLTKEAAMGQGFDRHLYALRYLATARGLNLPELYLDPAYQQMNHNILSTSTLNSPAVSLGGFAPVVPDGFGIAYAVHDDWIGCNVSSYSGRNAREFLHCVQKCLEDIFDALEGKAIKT
Description: (§1) SUPPLEMENTARY: Inhibition of Carnitine palmitoyltransferase 2.

For assay [3], the target named is T3, Carnitine O-palmitoyltransferase 2, mitochondrial (Homo sapiens, UniProt P23786).
T3 sequence (P23786 whole entry): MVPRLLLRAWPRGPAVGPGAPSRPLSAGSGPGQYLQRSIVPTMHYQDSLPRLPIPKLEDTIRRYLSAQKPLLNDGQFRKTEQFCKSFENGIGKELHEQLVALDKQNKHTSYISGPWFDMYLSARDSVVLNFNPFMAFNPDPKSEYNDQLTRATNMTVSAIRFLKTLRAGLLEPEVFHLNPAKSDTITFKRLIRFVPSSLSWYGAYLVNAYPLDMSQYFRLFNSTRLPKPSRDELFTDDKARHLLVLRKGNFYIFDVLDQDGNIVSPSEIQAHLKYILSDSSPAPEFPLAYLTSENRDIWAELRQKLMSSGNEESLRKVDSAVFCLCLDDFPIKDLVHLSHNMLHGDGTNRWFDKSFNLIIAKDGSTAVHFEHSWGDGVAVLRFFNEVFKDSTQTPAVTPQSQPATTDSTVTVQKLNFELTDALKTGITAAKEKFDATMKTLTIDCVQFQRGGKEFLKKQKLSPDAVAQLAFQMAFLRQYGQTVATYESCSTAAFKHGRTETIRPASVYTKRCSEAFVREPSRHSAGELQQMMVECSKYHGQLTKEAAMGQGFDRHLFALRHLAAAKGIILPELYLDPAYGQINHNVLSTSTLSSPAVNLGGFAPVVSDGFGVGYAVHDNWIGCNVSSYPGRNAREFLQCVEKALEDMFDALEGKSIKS
Described as §1.

Assay [4] has as its target T4, Carnitine O-palmitoyltransferase 1, liver isoform (Rattus norvegicus, UniProt P32198).
T4 sequence (P32198 whole entry): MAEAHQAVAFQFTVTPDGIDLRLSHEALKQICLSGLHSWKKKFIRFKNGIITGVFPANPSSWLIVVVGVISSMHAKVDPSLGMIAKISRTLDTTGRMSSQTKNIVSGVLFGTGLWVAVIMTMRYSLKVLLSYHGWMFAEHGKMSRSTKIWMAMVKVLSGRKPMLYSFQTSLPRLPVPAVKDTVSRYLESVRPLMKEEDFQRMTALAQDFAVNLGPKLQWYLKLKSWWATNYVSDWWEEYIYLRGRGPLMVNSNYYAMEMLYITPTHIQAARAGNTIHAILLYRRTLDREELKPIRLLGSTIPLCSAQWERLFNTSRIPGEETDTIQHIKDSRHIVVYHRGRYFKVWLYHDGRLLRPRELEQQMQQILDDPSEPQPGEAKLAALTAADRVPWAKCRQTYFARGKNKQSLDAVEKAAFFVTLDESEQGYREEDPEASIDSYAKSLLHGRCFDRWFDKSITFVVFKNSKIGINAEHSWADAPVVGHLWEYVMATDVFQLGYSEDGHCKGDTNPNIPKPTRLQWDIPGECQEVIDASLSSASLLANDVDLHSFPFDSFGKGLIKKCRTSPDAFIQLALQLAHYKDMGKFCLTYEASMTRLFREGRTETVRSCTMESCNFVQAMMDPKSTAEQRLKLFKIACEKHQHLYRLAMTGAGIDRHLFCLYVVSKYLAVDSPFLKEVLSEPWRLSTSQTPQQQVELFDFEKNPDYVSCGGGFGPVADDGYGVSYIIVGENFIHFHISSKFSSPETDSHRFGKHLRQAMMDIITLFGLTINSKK
Description: (§2) SUPPLEMENTARY: Inhibition of Carnitine palmitoyltransferase 1, liver isoform.

Assay [5] has as its target T5, Carnitine O-palmitoyltransferase 1, liver isoform (Homo sapiens, UniProt P50416).
T5 sequence (P50416 whole entry): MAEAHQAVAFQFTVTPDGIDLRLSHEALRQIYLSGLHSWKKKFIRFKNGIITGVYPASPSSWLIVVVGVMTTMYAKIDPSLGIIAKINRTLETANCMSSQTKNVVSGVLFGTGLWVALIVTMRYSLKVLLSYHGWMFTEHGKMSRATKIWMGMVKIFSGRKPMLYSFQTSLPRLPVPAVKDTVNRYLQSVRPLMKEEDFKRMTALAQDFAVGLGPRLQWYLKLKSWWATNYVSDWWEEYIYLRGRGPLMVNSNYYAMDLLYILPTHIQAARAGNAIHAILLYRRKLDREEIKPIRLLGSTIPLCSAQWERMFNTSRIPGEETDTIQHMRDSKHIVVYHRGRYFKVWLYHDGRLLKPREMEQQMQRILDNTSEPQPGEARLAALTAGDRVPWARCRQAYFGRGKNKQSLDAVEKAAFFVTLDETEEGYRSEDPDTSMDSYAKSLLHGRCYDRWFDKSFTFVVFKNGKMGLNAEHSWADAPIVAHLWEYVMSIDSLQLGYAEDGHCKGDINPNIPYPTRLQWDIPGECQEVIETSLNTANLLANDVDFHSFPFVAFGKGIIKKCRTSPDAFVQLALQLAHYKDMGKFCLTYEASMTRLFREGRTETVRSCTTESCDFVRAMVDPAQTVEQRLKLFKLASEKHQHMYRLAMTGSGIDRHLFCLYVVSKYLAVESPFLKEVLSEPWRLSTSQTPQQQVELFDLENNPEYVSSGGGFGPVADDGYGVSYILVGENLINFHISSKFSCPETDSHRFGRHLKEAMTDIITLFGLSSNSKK
The assay is described as §2.

For the molecule `O=C(COc1ccccc1)N1CCCC[C@@H]1c1noc(-c2cc(F)c(F)cc2F)n1`, the IC50 in assay [1] is > 100000 nM; in assay [2] it was > 100000 nM; in assay [3] it was > 100000 nM; in assay [4], 173 nM; in assay [5] it was 153 nM.
In the case of `O=C(COc1ccccc1)N1CCNCC1c1nc(-c2ccc(N3CCOCC3)cc2)no1` (centres undefined), the IC50 was > 100000 nM in assay [1]; > 100000 nM in assay [2]; > 100000 nM in assay [3]; 489 nM in assay [4]; 88.7 nM in assay [5].
Turning to `O=C(NCc1ccc(-c2nnn[nH]2)cc1)c1nn(Cc2ccc(OC(F)F)cc2)c2ccc(F)cc12`, the IC50 in assay [1] is 8510 nM; in assay [2], > 100000 nM; in assay [3], > 100000 nM; in assay [4], 394 nM; in assay [5], 221 nM.
As to `O=C(COc1ccccc1)N1CCCC[C@@H]1c1nc(-c2ccc(O)cc2)no1`, the IC50 in assay [1] turned out to be 39200 nM; in assay [3] it was 75500 nM; in assay [4] it was 124 nM; in assay [5], 73.2 nM.
Turning to `O=C1CN(NC(=O)c2cccc(-c3n[nH]c([C@H]4CCCCN4C(=O)COc4ccccc4)n3)c2)C(=O)N1`, the IC50 in assay [1] was > 100000 nM; in assay [3], 19400 nM; in assay [4] it was 574 nM; in assay [5], 273 nM.
On to `Cc1cc(C)cc(S(=O)(=O)N2CCOc3ccc(C(=O)Nc4ccc(C(=O)O)c(F)c4)cc32)c1`, for which the IC50 in assay [1] stood at 2710 nM; in assay [3], 2040 nM; in assay [4], 70.4 nM; in assay [5], 252 nM.
In the case of `O=C(COc1ccccc1)N1CCCC[C@@H]1c1nnn(-c2ccccc2)n1`, the concentration for half-maximal inhibition (IC50) is > 100000 nM in assay [1]; > 100000 nM in assay [2]; > 100000 nM in assay [3]; 76.9 nM in assay [4]; 156 nM in assay [5].
For `O=C(COc1ccccc1)N1CCCC[C@@H]1c1nnn(-c2ccc(F)cc2)n1`, the IC50 in assay [1] was > 100000 nM; in assay [2], > 100000 nM; in assay [3] it was > 100000 nM; in assay [4], 256 nM; in assay [5], 197 nM.
On to `COc1ccc(-n2nnc([C@H]3CCCCN3C(=O)COc3ccccc3)n2)cc1`, for which the half-maximal inhibitory concentration (IC50) was > 100000 nM in assay [1]; > 100000 nM in assay [2]; 24200 nM in assay [3]; 103 nM in assay [4]; 159 nM in assay [5].
With `COc1ccc(C)cc1S(=O)(=O)N1CCOc2ccc(C(=O)Nc3ccc(C(=O)O)c(F)c3)cc21`, the IC50 in assay [1] stood at 2150 nM; in assay [2], 15400 nM; in assay [3], 2580 nM; in assay [4], 102 nM; in assay [5], 224 nM.
`COc1ccc(Cl)cc1S(=O)(=O)N1CCCc2ccc(NC(=O)c3ccc(CC(=O)O)cc3)cc21`: the half-inhibitory concentration (IC50) in assay [1] is 1820 nM; in assay [2], > 100000 nM; in assay [3] it was > 100000 nM; in assay [4], 658 nM; in assay [5], 388 nM.
Take `Nc1ccc(-c2n[nH]c([C@H]3CCCCN3C(=O)COc3ccccc3)n2)cn1`: the IC50 in assay [2] came to 90700 nM; in assay [3], 80000 nM; in assay [4], 759 nM; in assay [5], 325 nM.
For the molecule `CS(=O)(=O)c1ccc(-n2nnc([C@H]3CCCCN3C(=O)COc3ccccc3)n2)cc1`, the 50% inhibitory concentration (IC50) in assay [1] is > 100000 nM; in assay [2], > 100000 nM; in assay [3] it was 17400 nM; in assay [4] it was 607 nM; in assay [5] it was 123 nM.
Take `O=C(COc1ccccc1)N1CCCC[C@@H]1C#Cc1ccc2[nH]cnc2c1`: the IC50 was 7310 nM in assay [1]; > 100000 nM in assay [2]; > 100000 nM in assay [3]; 72.2 nM in assay [4]; 130 nM in assay [5].
Consider `O=C([C@H]1CCCCN1C(=O)COc1ccccc1)N1CCc2c(Cl)cccc2C1`, for which the IC50 in assay [1] was > 100000 nM; in assay [2], 1610 nM; in assay [3], 634 nM; in assay [4], 367 nM; in assay [5], 224 nM.
`O=C([C@H]1CCCCN1C(=O)COc1ccccc1)N1CCc2ccc([N+](=O)[O-])cc2C1`: the IC50 in assay [1] was > 100000 nM; in assay [2], 2850 nM; in assay [3], 1620 nM; in assay [5], 648 nM.
Take `COc1ccc(Cl)cc1S(=O)(=O)N1COc2c(OC)cc(C(=O)Nc3ccc(C(=O)O)cc3)cc21`: the IC50 in assay [1] amounted to 29000 nM; in assay [2], 2120 nM; in assay [3], 782 nM; in assay [5], 530 nM.
